{"source": "ChEMBL document CHEMBL1142783", "about": "“Hydrophobicity in the design of P2/P2' tetrahydropyrimidinone HIV protease inhibitors” (Bioorg Med Chem Lett, 2005)", "data": [{"target": "Human immunodeficiency virus type 1 protease (Human immunodeficiency virus 1) (UniProt Q72874)", "test": "Concentration which reduced the concentration of HIV viral RNA by 90% from the level measured in an untreated infected culture", "assay_type": "functional", "values": [{"smiles": "O=C1N(c2cccc(CO)c2)[C@H](CCc2ccccc2)[C@@H](O)[C@@H](Cc2ccccc2)N1c1cccc(CO)c1", "Log 1/IC90": 6.96}, {"smiles": "NC(=O)c1cccc(N2C(=O)N(c3cccc(C(N)=O)c3)[C@H](Cc3ccccc3)[C@H](O)[C@H]2CCc2ccccc2)c1", "Log 1/IC90": 7.46}, {"smiles": "NC(=O)c1cc(N2C(=O)N(c3ccc(F)c(C(N)=O)c3)[C@H](Cc3ccccc3)[C@H](O)[C@H]2CCc2ccccc2)ccc1F", "Log 1/IC90": 6.31}, {"smiles": "Nc1cc(N2C(=O)N(c3ccc(F)c(N)c3)[C@H](Cc3ccccc3)[C@H](O)[C@H]2CCc2ccccc2)ccc1F", "Log 1/IC90": 7.44}, {"smiles": "N#Cc1cccc(N2C(=O)N(c3cccc(C#N)c3)[C@H](Cc3ccccc3)[C@H](O)[C@H]2CCc2ccccc2)c1", "Log 1/IC90": 5.8}, {"smiles": "CNc1cccc(N2C(=O)N(c3cccc(NC)c3)[C@H](Cc3ccccc3)[C@H](O)[C@H]2CCc2ccccc2)c1", "Log 1/IC90": 6.48}, {"smiles": "O=C1N(c2ccc(CO)cc2)[C@H](CCc2ccccc2)[C@@H](O)[C@@H](Cc2ccccc2)N1c1ccc(CO)cc1", "Log 1/IC90": 5.44}, {"smiles": "N=C(NO)c1cccc(N2C(=O)N(c3cccc(/C(N)=C\\O)c3)[C@H](Cc3ccccc3)[C@H](O)[C@H]2CCc2ccccc2)c1", "Log 1/IC90": 7.31}, {"smiles": "Nc1ccc(N2C(=O)N(c3ccc(N)c(F)c3)[C@H](Cc3ccccc3)[C@H](O)[C@H]2CCc2ccccc2)cc1F", "Log 1/IC90": 6.27}, {"smiles": "Nc1cccc(N2C(=O)N(c3cccc(N)c3)[C@H](Cc3ccccc3)[C@H](O)[C@H]2CCc2ccccc2)c1", "Log 1/IC90": 6.44}, {"smiles": "O=C1N(c2ccccc2)[C@H](CCc2ccccc2)[C@@H](O)[C@@H](Cc2ccccc2)N1c1ccccc1", "Log 1/IC90": 5.55}, {"smiles": "O=C1N(c2cccc(O)c2)[C@H](CCc2ccccc2)[C@@H](O)[C@@H](Cc2ccccc2)N1c1cccc(O)c1", "Log 1/IC90": 6.94}]}]}
